≈ marks a conversion by molar mass, not a printed value. Where “and” joins values, the source holds several entries; their conditions need not be identical. Equal values may be shown once.
Assays:
HSV-1 TK = target: T1, HSV-1 TK (Human herpesvirus 1, UniProt P0DTH5); assay: Competitive inhibition of [3H]-thymidine phosphorylation by partially purified HSV-1 TK; assay type: biochemical
T1 construct: HSV thymidine kinase (HSV TK) was isolated from HELA (BU25) cells infected with the SW148 strain of HSV-1; made in house; host or cells: HeLa (BU25) thymidine-kinase-deficient cells infected with HSV-1 strain S148/SW148
Procedure: The Ki's were determined from a plot of the slope of each line versus the concentration of the competitor (D-, L, or D,L-2'CdG) and are summarized below: TABLE 2

[1] = test system: MRC5 cell monolayer cultures; assay: Drug cytotoxicity (gross morphology) in MRC5 cell monolayer cultures; assay type: cell-based
Procedure: (§1) The D- and L-enantiomers of 2'-CdG were prepared from racemic C-2,6-DAPR by an enzymatic method as described above Secrist et al. (J. Med. Chem. 30:746, 1987). The effectiveness of racemic-2'-CdG and of D-2'-CdG in reducing CMV yields in MRC5 cell monolayer cultures was determined by a plaque assay with the results set forth in tables 6 and 7.

HBV = HBV DNA production and replication in 2.2.15 cell cultures; assay type: cell-based, Hepatitis B virus (HBV); conditions: for INTRACELLULAR HBV DNA INTEG. / INTRACELLULAR HBV DNA MONO. / INTRACELLULAR HBV DNA RI: 24 hours following 10th day of treatment; for HBV DNA IN CULTURE MEDIUM DAY 0: day 0 of treatment
Procedure: 2'-CdG was tested at three concentrations (50 ng/ml, 500 ng/ml, and 5 ug/ml) against the HBV-producing, human liver cell line, 2.2.15 (Sells et al., J. Virol. 62:2836, 1989). A racemic (D,L) preparation, as well as the purified D and L isomers were tested. For these analyses compounds were tested in duplicate at all concentrations. Ara-AMP and ddG (2'3'-dideoxyguanosine) were used as HBV inhibitory control compounds. […] The nucleoside analog, ddG was used as an additional control compound since ddG has activity against duck hepatitis B virus in chronically infected Peking ducks (Lee et al., Antimicrob. Agents Chemother. 33:336, 1989) and 2'-CdG is also a deoxyguanosine analog.
2.2.15 cells were seeded in 6 well culture plates and grown to confluence over a 10 day period in medium with 5% FBS. Test compounds were then added daily for a continuous 10 day period in medium with 1% dialyzed FBS. […] Compounds were tested, in duplicate cultures, at 3 concentrations covering a 100-fold range. Culture medium (changed daily during the treatment period) was collected and stored for analysis of extracellular (virion) HBV DNA from days 0, 3, 6, and 10 of the treatment period. This allowed for an analysis of the level of HBV virion production during discrete 24 hour intervals and reduced the potential for the buildup of toxic metabolites derived from the test compounds. Treated cells were lysed following the 10th day of treatment for the analysis of intracellular HBV genomic forms. HBV DNA was analyzed in a quantitative manner for (i) overall levels (both extracellular and intracellular DNA) and (ii) the relative rate of HBV replication (intracellular DNA only).
HBV DNA levels were measured by comparison to known amounts of HBV DNA standards applied to every nitrocellulose filter (gel or slot blot) using an AMBIS Beta Scanner. Standard curves, generated by multiple analyses, were used to correlate CPM measurements with relative levels of target HBV DNA. The levels of HBV DNA in each of three classes of intracellular viral genomic forms were individually quantitated: integrated HBV DNA, episomal monomeric genomes and HBV DNA replication intermediates (RI). Integrated HBV DNA was used to normalize the relative amounts of DNA in each lane because the levels of this class of HBV DNA would be expected to remain constant on a per cell basis. The levels of the monomeric HBV genomes and RI were used as an indicator of the relative level of HBV replication.

HSV-2 (strain MS, TK+) = assay: Antiviral activity against HSV-2; assay type: cell-based; conditions: HSV-2; for EC50: Human alphaherpesvirus 2, read-out: Mic50
Procedure: (§2) D-2'-CdG and L-2'-CdG were tested, alongside D,L-2'-CdG, against both HSV-1 (strain 377, TK+; obtained from Dr. Earl Kern, University of Alabama) and HSV-2 (strain MS, TK+; also obtained from Dr. Earl Kern). In these tests (Table 5), Ara-A and acyclovir (ACV) were the positive control drugs. In four tests vs. HSV-1, the antiviral activity (VR) and potency (MIC50) of D-2'-CdG were approximately the same as those of racemic 2-CdG. L-2'-CdG was only modestly active.
These compounds were tested against HSV-2(TK^+). The VR of ACV was somewhat higher than the VR values of D-2'-CdG and D,L-2'-CdG, but the values of MIC50 of the two forms of 2'-CdG were lower. In addition, experiments comparing the antiviral activity D-2'-CdG with acyclovir against HSV-1 in human foreskin fibroblasts have shown an even greater potency, in favor of D-2'-CdG.

HSV-1 (strain 377, TK+) = assay: Antiviral activity against HSV-1; assay type: cell-based; conditions: for VR / EC50: HSV-1, range of tests; for EC50: Human alphaherpesvirus 1, read-out: Mic50
Procedure: as §2

CMV = CMV yield reduction in MRC5 cell monolayer cultures (plaque assay); assay type: cell-based, human CMV; conditions: for CMV Yield: virus control 5.5
Procedure: as §1

[2] = test system: MRC5 cell monolayer cultures; assay: Drug cytotoxicity (gross morphology) in MRC5 cell monolayer cultures; assay type: cell-based; remark: listed apart in the source

T1 sequence (P0DTH5 whole entry): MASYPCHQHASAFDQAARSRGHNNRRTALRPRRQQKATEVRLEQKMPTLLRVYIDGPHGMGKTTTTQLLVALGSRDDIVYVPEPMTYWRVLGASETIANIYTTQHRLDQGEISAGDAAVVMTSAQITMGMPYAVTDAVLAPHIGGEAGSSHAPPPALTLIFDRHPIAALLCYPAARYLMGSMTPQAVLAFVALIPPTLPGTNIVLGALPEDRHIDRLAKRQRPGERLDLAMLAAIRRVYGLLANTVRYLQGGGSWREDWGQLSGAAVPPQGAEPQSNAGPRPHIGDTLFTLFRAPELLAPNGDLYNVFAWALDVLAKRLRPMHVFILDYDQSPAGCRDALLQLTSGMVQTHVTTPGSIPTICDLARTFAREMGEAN

Nc1nc2c(ncn2[C@@H]2C[C@H](CO)[C@@H](O)C2)c(=O)[nH]1 (racemic) [D,L-2'-CdG, (±)-2-amino-1,9-dihydro-[(1α,3β,4α)-3-hydroxy-4(hydroxymethyl)cyclopentyl]-6H-purin-6-one]
Ki (HSV-1 TK): 3 µM | Drug Cytotoxicity (Gross Morphology) ([1]; 0.032 µg/mL): 0 | Drug Cytotoxicity (Gross Morphology) ([1]; 0.1 µg/mL): 0 | Drug Cytotoxicity (Gross Morphology) ([1]; 1.0 µg/mL): 0 | Drug Cytotoxicity (Gross Morphology) ([1]; 32 µg/mL): toxic | INTRACELLULAR HBV DNA INTEG. (HBV; 50ng/ml): 1.3 PG/UG CELL DNA and 1.2 PG/UG CELL DNA | INTRACELLULAR HBV DNA MONO. (HBV; 50ng/ml): 2.1 PG/UG CELL DNA and 1.4 PG/UG CELL DNA | INTRACELLULAR HBV DNA RI (HBV; 50ng/ml): 12 PG/UG CELL DNA and 18 PG/UG CELL DNA | HBV DNA IN CULTURE MEDIUM DAY 0 (HBV; 50ng/ml): 120 pg/mL and 95 pg/mL | HBV DNA IN CULTURE MEDIUM DAY 3 (HBV; 50ng/ml): 88 pg/mL and 75 pg/mL | HBV DNA IN CULTURE MEDIUM DAY 6 (HBV; 50ng/ml): 55 pg/mL and 77 pg/mL | HBV DNA IN CULTURE MEDIUM DAY 10 (HBV; 50ng/ml): 11 pg/mL and 6 pg/mL | INTRACELLULAR HBV DNA INTEG. (HBV; 500ng/ml): 1.4 PG/UG CELL DNA and 1.5 PG/UG CELL DNA | INTRACELLULAR HBV DNA MONO. (HBV; 500ng/ml): 1.8 PG/UG CELL DNA and 2.0 PG/UG CELL DNA | HBV DNA IN CULTURE MEDIUM DAY 0 (HBV; 500ng/ml): 89 pg/mL and 90 pg/mL | HBV DNA IN CULTURE MEDIUM DAY 3 (HBV; 500ng/ml): 41 pg/mL and 55 pg/mL | HBV DNA IN CULTURE MEDIUM DAY 10 (HBV; 500ng/ml): 0.1 pg/mL and 0.2 pg/mL | INTRACELLULAR HBV DNA INTEG. (HBV; 5 ug/ml): 1.0 PG/UG CELL DNA and 1.6 PG/UG CELL DNA | INTRACELLULAR HBV DNA MONO. (HBV; 5 ug/ml): 1.9 PG/UG CELL DNA and 1.7 PG/UG CELL DNA | HBV DNA IN CULTURE MEDIUM DAY 0 (HBV; 5 ug/ml): 87 pg/mL and 88 pg/mL | HBV DNA IN CULTURE MEDIUM DAY 3 (HBV; 5 ug/ml): 16 pg/mL and 24 pg/mL | HBV DNA IN CULTURE MEDIUM DAY 6 (HBV; 5 ug/ml): 0.3 pg/mL and 0.4 pg/mL | HBV DNA IN CULTURE MEDIUM DAY 10 (HBV; 5 ug/ml): 0 pg/mL | MIC (HBV; Hepatitis B virus, 240 h, HBV replication in 2.2.15 cells, read-out: minimal inhibitory concentration): ~0.05 µg/mL (≈ 0.188 µM) | VR (HSV-2 (strain MS, TK+)): 3.7 | EC50 (HSV-2 (strain MS, TK+)): 2.6 µg/mL (≈ 9.8 µM) | VR (HSV-1 (strain 377, TK+)): 5.3-7.0 | EC50 (HSV-1 (strain 377, TK+)): 0.2 to 0.3 µg/mL (≈ 0.754 to 1.13 µM) | potency relative to ACV (HSV-1 (strain 377, TK+); more potent than ACV): 5-10 times | CMV Yield (CMV; 0.032 µg/mL): 5.4 log10CCID50/mL | CMV Yield (CMV; 0.1 µg/mL): 5.0 log10CCID50/mL | CMV Yield (CMV; 0.32 µg/mL): 4.5 log10CCID50/mL | CMV Yield (CMV; 1.0 µg/mL): 3.6 log10CCID50/mL | CMV Yield (CMV; 3.2 µg/mL): 1.0 log10CCID50/mL | CMV Yield (CMV; 10 µg/mL): 0 log10CCID50/mL | inhibition at 0.032 µg/mL (CMV; Human betaherpesvirus 5, MRC5, 0.032 µg/mL, read-out: Reduction (%) of CPE by CdG at Time of Harvest): 0% | inhibition at 0.1 µg/mL (CMV; Human betaherpesvirus 5, MRC5, 0.1 µg/mL, read-out: Reduction (%) of CPE by CdG at Time of Harvest): 0% | inhibition at 0.32 µg/mL (CMV; Human betaherpesvirus 5, MRC5, 0.32 µg/mL, read-out: Reduction (%) of CPE by CdG at Time of Harvest): 20% | inhibition at 1 µg/mL (CMV; Human betaherpesvirus 5, MRC5, 1.0 µg/mL, read-out: Reduction (%) of CPE by CdG at Time of Harvest): 95% | inhibition at 3.2 µg/mL (CMV; Human betaherpesvirus 5, MRC5, 3.2 µg/mL, read-out: Reduction (%) of CPE by CdG at Time of Harvest): 100% | inhibition at 10 µg/mL (CMV; Human betaherpesvirus 5, MRC5, 10 µg/mL, read-out: Reduction (%) of CPE by CdG at Time of Harvest): 100% | EC50 (CMV; Human betaherpesvirus 5, MRC5 cells, read-out: MIC50): 0.069 µg/mL (≈ 0.26 µM) | Drug Cytotoxicity (Gross Morphology) ([2]; 0.32 µg/mL): 0 | Drug Cytotoxicity (Gross Morphology) ([2]; 3.2 µg/mL): v. sl. toxicity | Drug Cytotoxicity (Gross Morphology) ([2]; 10 µg/mL): sl. toxicity

Nc1ncnc2c1ncn2[C@@H]1O[C@H](COP(=O)(O)O)[C@@H](O)[C@@H]1O [ARA-AMP, adenine arabinoside monophosphate, reference compound]
INTRACELLULAR HBV DNA INTEG. (HBV; 300 UG/ML): 1.3 PG/UG CELL DNA and 1.1 PG/UG CELL DNA | INTRACELLULAR HBV DNA MONO. (HBV; 300 UG/ML): 0.1 PG/UG CELL DNA | INTRACELLULAR HBV DNA RI (HBV; 300 UG/ML): 0.2 PG/UG CELL DNA and 0.3 PG/UG CELL DNA | HBV DNA IN CULTURE MEDIUM DAY 0 (HBV; 300 UG/ML): 100 pg/mL and 95 pg/mL | HBV DNA IN CULTURE MEDIUM DAY 3 (HBV; 300 UG/ML): 25 pg/mL and 30 pg/mL | HBV DNA IN CULTURE MEDIUM DAY 6 (HBV; 300 UG/ML): 0 pg/mL | HBV DNA IN CULTURE MEDIUM DAY 10 (HBV; 300 UG/ML): 0 pg/mL

Nc1nc2c(ncn2COCCO)c(=O)[nH]1 [Acyclovir, acyloguanosine, reference compound]
VR (HSV-2 (strain MS, TK+)): 4.5 | EC50 (HSV-2 (strain MS, TK+)): 5.3 µg/mL (≈ 23.5 µM) | VR (HSV-1 (strain 377, TK+)): 5.7-6.5 | EC50 (HSV-1 (strain 377, TK+)): 1.5 to 2.9 µg/mL (≈ 6.66 to 12.9 µM)

Reference: EP0684822B1, “CARBOCYCLIC DEOXYGUANOSINE ANALOGS FOR THE TREATMENT OF VIRAL INFECTIONS” (SOUTHERN RESEARCH INSTITUTE, priority 1993, dated 1994)
